Test results from patent US6759241B1, “Adjuvant comprising a lipopolysaccharide antagonist” (priority 1999, dated 2004).
Where no end group is shown, it is not given here.

How the values were obtained:
BALB/c mice [1] = experiment: Adjuvant activity with peptide antigen Hep-Tat: Hep-Tat-specific serum IgG by ELISA; assay type: in vivo
Method: Vaccine preparations containing a peptide antigen and an LPS antagonist were prepared in the following manner. Each vaccine preparation contained […] of the vaccine peptide (herein designated “Hep-Tat”) that corresponds to the heparin-binding domain of the HIV-1 regulatory protein Tat and is comprised of the following sequence (GLGIS YGRKKRRQR; SEQ ID NO: 1). The peptide antigen was prepared synthetically as a Multiple Antigen Peptide (MAPS;Genosys). To formulate the preparations comprised of Hep-Tat and LPS antagonist (purified as outlined above), […] of Hep-Tat was combined with a range of LPS antagonist doses (from […]). The LPS antagonist was isolated from MLK986 cultured at 37° C. as described in. Example 1.
Groups of three BAL Blc mice were injected intraperitoneally with a single dose of a given preparation of Hep-Tat and LPS antagonist (i.e., primary vaccination). To determine the immunogenicity of the antigen in the absence of LPS antagonist, a group of BALB/c mice were vaccinated with 50 μg Hep-Tat formulated-alone. For comparative purposes, an additional group of mice was vaccinated with 50 μg Hep-Tat formulated with Alum, as described (Coligan, et al., 1994, supra).
To measure the immunogenicity of each formulation, venous blood was collected from the mice in each group before and on day 14 after primary vaccination, as described (Coligan, et al., 1994, supra). Serum was then obtained from each of these blood samples using standard techniques (Coligan, et al., 1994, supra). On day 21 after the primary vaccination, mice were given a booster vaccination containing the same dose of Hep-Tat and LPS antagonist or alum as was given in the primary vaccination. Seven days after the boost, venous blood was collected from the mice in each, and sera were obtained as outlined above. Each of the serum samples from individual groups were pooled and the level of Hep-Tat-specific IgG was ascertained by ELISA. In short, plastic 96 well ELISA plates (Immunol 2 Dynatech) were coated with Hep-Tat, by adding […] of Hep-Tat at 10 μg/ml suspended in PBS (Phosphate Buffer Saline) pH 7.4 in each well, and incubating overnight at 4° C. The plates were subsequently washed to remove unbound peptide and then 100 μl of blocking solution (comprised of 1% (w/v) Bovine Serum Albumin (BSA; Sigma) suspended in PBS) was added to each well. […] The result of the ELISA were obtained by reading the optical density of each well using a Molecular Dynamics ELISA plate reader. […]

BALB/c mice [2] = experiment: Adjuvant activity with protein antigen gp120: anti-gp120 serum IgG by ELISA; assay type: in vivo
Method: Vaccine preparations containing an LPS antagonist and a protein antigen can be prepared in the following manner. Each vaccine preparation contained 5 μg of fully glycosylated endotoxia-free HIV-1MN gp120 (Virostat Cat. No. 8919, Lot AM735). Preparations comprised of gp120 and LPS antagonist were formulated essentially as outlined in Example 2 above except that each dose contained 5 μg of gp120 combined with a range of LPS antagonist doses (from 1 μg to 10 μg). The LPS antagonist was isolated from MLK986 cultured at 37° C. as described above.
Groups of 3 BALB/c mice were given a single dose of a given preparation of gp120 and LPS antagonist subcutaneously (primary vaccination). To determine the immunogenicity of the antigen in the absence of LPS antagonist, a group of BALB/c mice were vaccinated with 5 μg gp 120 formulated alone. For comparative purposes, an additional group of mice were vaccinated with 5 μg of gp120 formulated with Alum, as described (Coligan, et al., 1994, supra).
To measure the immunogenicity of each formulation, sera were collected from the mice in each group before and on day 14 after primary vaccination, as described in Example 2 above. On day 21 after the primary vaccination, mice were given a booster vaccination containing […] of gp120 formulated with matched doses of LPS antagonist, as was given in the primary vaccination. Ten and 17 days after the boost, venous blood was collected from the mice, and sera were obtained as outlined above. The level of anti-gp120 IgG in pooled serum samples was determined by ELISA as described in Example 2 above, except that gp120 was used in place of Hep-Tat in the first coating step. The results of the ELISA were obtained by reading the optical density of each well using a Molecular Dynamics ELISA plate reader and are shown in Table 3 below. The data are presented as dilution of the sera to achieve 50% saturation.

[3] = system: human peripheral blood mononuclear cells (PBMCs); experiment: LPS antagonist activity: TNFα secretion by stimulated human PBMCs (capture ELISA); assay type: cell-based; details: 1 μg/ml + W3110 (10 ng/ml), 8 hr
Method: W3110 LPS (also cultured at 37° C.) from 1 ng/ml to 100 ng/ml alone and W3110 LPS (10 ng/ml) mixed with synthetic lipid IVA (1 μg/ml) were used as controls. For this, PBMCs were obtained from 50 ml of whole blood and resuspended in complete medium (CM; RPMI containing pyruvate, glutamine, PenStrep, and 10% endotoxin-free human AB serum (Life Technologies) at a density of 6×10^6 PBMCs/ml. CM containing W3110 LPS, MLK986 LPS or synthetic lipid IVA was placed into duplicate wells of a 96-well flat bottom culture plate (Costar) at double the target final concentration. An equal volume of CM containing the PBMCs then was added to these wells and the culture plates were incubated at 37° C. in 5% CO2 for 8 hr. The supernatants were then removed and stored at […] Quantitation of TNFα, IL-1β, and IL-6 in these culture supernatants was achieved by capture ELISA (R&D Systems).

[4] = Pre (before primary vaccination), pooled sera

Hep-Tat: vaccine peptide, heparin-binding domain of HIV-1 Tat (GLGIS YGRKKRRQR; SEQ ID NO: 1), Multiple Antigen Peptide (GLGISYGRKKRRQR; also: multiple antigen peptide format)
Tat-specific antibodies (Hep-Tat-specific IgG), dilution of the sera to achieve the 50% saturation (BALB/c mice [1]; 50 μg Hep-Tat alone, intraperitoneal, boosted, Day 21): <10
Tat-specific antibodies (Hep-Tat-specific IgG), dilution of the sera to achieve the 50% saturation (BALB/c mice [1]; 50 μg Hep-Tat alone, intraperitoneal, Day 14): <10
immunogenicity of the antigen dose (BALB/c mice [1]; 50 μg of Hep-Tat formulated with Alum (Pierce), preliminary experiments): marginally immunogenic
Tat-specific antibodies (Hep-Tat-specific IgG), dilution of the sera to achieve the 50% saturation (BALB/c mice [1]; [4]): <10

Gp120: fully glycosylated endotoxin-free HIV-1MN gp120 (Virostat Cat. No. 8919)
Gp120-specific serum antibodies (anti-gp120 IgG), dilution of the sera to achieve 50% saturation (BALB/c mice [2]; 5 μg gp120 alone, subcutaneous, Day 14): <10
immunogenicity of the antigen dose (BALB/c mice [2]; 5 μg of gp120 formulated with Alum, preliminary experiments): marginally immunogenic
Gp120-specific serum antibodies (anti-gp120 IgG), dilution of the sera to achieve 50% saturation (BALB/c mice [2]; [4]): −10
Gp120-specific serum antibodies (anti-gp120 IgG), dilution of the sera to achieve 50% saturation (BALB/c mice [2]; gp120 alone, subcutaneous, boosted, Day 21): <10

CCCCCCCCCCC[C@@H](O)CC(=O)N[C@H]1[C@H](OC[C@H]2O[C@H](OP(=O)(O)O)[C@H](NC(=O)C[C@H](O)CCCCCCCCCCC)[C@@H](OC(=O)C[C@H](O)CCCCCCCCCCC)[C@@H]2O)O[C@H](CO)[C@@H](OP(=O)(O)O)[C@@H]1OC(=O)C[C@H](O)CCCCCCCCCCC [Lipid IVA]
TNFa [3]: <30 pg/mL
